# Assay results: patent publication US9127001B2, “Substituted 4,5,6,7-tetrahydro-1H-pyrazolo[4,3-c]pyridines, their use as medicament, and pharmaceutical preparations comprising them” (Sanofi, priority 2011, dated 2015)
# Biological target: Human TASK-1 channels (Homo sapiens (Human), UniProt O14649)
# Assay: Activity on the TASK-1 channel in Xenopus oocytes (two-microelectrode voltage clamp)
# Assay type: cell-based
# Settings: not given
# Procedure: Human TASK-1 channels were expressed in Xenopus oocytes. For this purpose, oocytes were isolated from Xenopus laevis and defoliculated. Subsequently, TASK-1-encoding RNA synthesized in vitro was injected into oocytes. […] Data were acquired and analyzed using a TEC-10cx amplifier (NPI Electronic, Tamm, Germany) connected to an ITC-16 interface (Instrutech Corp., Long Island, USA) and Pulse software (HEKA Elektronik, Lambrecht, Germany). […] Oocytes were continuously superfused with ND96 buffer containing: NaCl 96 mM, KCl 2 mM, CaCl2 1.8 mM, MgCl2 1 mM, HEPES 5 mM (pH adjusted to 7.4 with NaOH). All experiments were performed at room temperature.
# Test substances were consecutively added to the bath solution at rising concentrations. […] IC50 values were obtained by fitting the data to the general dose-response equation.
# Sequence of Human TASK-1 channels (O14649 whole entry): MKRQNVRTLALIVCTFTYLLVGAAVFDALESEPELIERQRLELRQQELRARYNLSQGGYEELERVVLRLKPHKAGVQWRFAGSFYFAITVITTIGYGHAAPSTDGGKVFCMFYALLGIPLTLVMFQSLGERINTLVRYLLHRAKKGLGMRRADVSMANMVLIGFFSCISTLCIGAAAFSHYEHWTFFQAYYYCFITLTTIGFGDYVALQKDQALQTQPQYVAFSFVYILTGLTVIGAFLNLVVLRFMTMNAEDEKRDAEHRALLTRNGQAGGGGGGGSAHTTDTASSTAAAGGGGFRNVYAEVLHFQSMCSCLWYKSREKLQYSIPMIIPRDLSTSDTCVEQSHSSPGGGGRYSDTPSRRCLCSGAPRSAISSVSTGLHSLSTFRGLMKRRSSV
row,Structure (SMILES),inhibition at 5 µM [%]
1,"CC(=O)N1CCc2c(c(-c3cccc(C(F)(F)F)c3)nn2Cc2csc(C)n2)C1 [Example 6ad, 1-[1-(2-Methyl-thiazol-4-ylmethyl)-3-(3-trifluoromethyl-phenyl)-1,4,6,7-tetrahydro-pyrazolo[4,3-c]pyridin-5-yl]-ethanone]",86
2,"CC(=O)N1CCc2c(c(-c3cccc(C(F)(F)F)c3)nn2Cc2ccc(C)cc2F)C1 [Example 6bn, 1-[1-(2-Fluoro-4-methyl-benzyl)-3-(3-trifluoromethyl-phenyl)-1,4,6,7-tetrahydro-pyrazolo[4,3-c]pyridin-5-yl]-ethanone]",81
3,"COc1cccnc1Cn1nc(-c2cccc(C(F)(F)F)c2)c2c1CCN(C(C)=O)C2 [Example 6s, 1-[1-(3-Methoxy-pyridin-2-ylmethyl)-3-(3-trifluoromethyl-phenyl)-1,4,6,7-tetrahydro-pyrazolo[4,3-c]pyridin-5-yl]-ethanone]",83
4,"CC(=O)N1CCc2c(c(-c3cccc(C)c3)nn2Cc2ccc(F)cc2F)C1 [Example 6az, 1-[1-(2,4-Difluoro-benzyl)-3-m-tolyl-1,4,6,7-tetrahydro-pyrazolo[4,3-c]pyridin-5-yl]-ethanone]",89
5,"CC(=O)N1CCc2c(c(-c3cccc(C#N)c3)nn2Cc2cc(F)ccc2F)C1 [Example 6ay, 3-[5-Acetyl-1-(2,5-difluoro-benzyl)-4,5,6,7-tetrahydro-1H-pyrazolo[4,3-c]pyridin-3-yl]-benzonitrile]",86
6,"CC(=O)N1CCc2c(c(-c3cccc(C#N)c3)nn2Cc2ccc(Cl)s2)C1 [Example 6ai, 3-[5-Acetyl-1-(5-chloro-thiophen-2-ylmethyl)-4,5,6,7-tetrahydro-1H-pyrazolo[4,3-c]pyridin-3-yl]-benzonitrile]",79
7,"CC(=O)N1CCc2c(c(-c3cccc(C)c3)nn2Cc2ccc(Cl)s2)C1 [Example 6ag, 1-[1-(5-Chloro-thiophen-2-ylmethyl)-3-m-tolyl-1,4,6,7-tetrahydro-pyrazolo[4,3-c]pyridin-5-yl]-ethanone]",75
8,"CC(=O)N1CCc2c(c(-c3cccc(Cl)c3)nn2Cc2ncccc2C)C1 [Example 6t, 1-[3-(3-Chloro-phenyl)-1-(3-methyl-pyridin-2-ylmethyl)-1,4,6,7-tetrahydro-pyrazolo[4,3-c]pyridin-5-yl]-ethanone]",62
9,"CCOC(=O)N1CCc2c(c(-c3cccc(C#N)c3)nn2Cc2ccc(F)cc2F)C1 [Example 8y, 3-(3-Cyano-phenyl)-1-(2,4-difluoro-benzyl)-1,4,6,7-tetrahydro-pyrazolo[4,3-c]pyridine-5-carboxylic acid ethyl ester]",77
10,"CC(=O)N1CCc2c(c(-c3cccc(C)c3)nn2Cc2cnccc2Cl)C1 [Example 6r, 1-[1-(4-Chloro-pyridin-3-ylmethyl)-3-m-tolyl-1,4,6,7-tetrahydro-pyrazolo[4,3-c]pyridin-5-yl]-ethanone]",79
11,"COCC(=O)N1CCc2c(c(-c3cccc(C#N)c3)nn2Cc2ccc(F)cc2F)C1 [Example 8n, 3-[1-(2,4-Difluoro-benzyl)-5-(2-methoxy-acetyl)-4,5,6,7-tetrahydro-1H-pyrazolo[4,3-c]pyridin-3-yl]-benzonitrile]",80
12,"CC(=O)N1CCc2c(c(-c3ccnc(Br)c3)nn2Cc2ccc(F)cc2F)C1 [Example 6k, 1-[3-(2-Bromo-pyridin-4-yl)-1-(2,4-difluoro-benzyl)-1,4,6,7-tetrahydro-pyrazolo[4,3-c]pyridin-5-yl]-ethanone]",78
13,"CC(=O)N1CCc2c(c(-c3ncccc3C)nn2Cc2ccc(F)cc2F)C1 [Example 6ab, 1-[1-(2,4-Difluoro-benzyl)-3-(3-methyl-pyridin-2-yl)-1,4,6,7-tetrahydro-pyrazolo[4,3-c]pyridin-5-yl]-ethanone]",76

# Same assay, conditions: human TASK-1 expressed in Xenopus oocytes, currents during pulses to 40 mV, room temperature
row,Structure (SMILES),IC50 [nM]
1,"CC(=O)N1CCc2c(c(-c3cc(C(F)(F)F)ccn3)nn2Cc2ccc(F)cc2F)C1 [Example 6h, 1-[1-(2,4-Difluoro-benzyl)-3-(4-trifluoromethyl-pyridin-2-yl)-1,4,6,7-tetrahydro-pyrazolo[4,3-c]pyridin-5-yl]-ethanone]",190
2,"CC(=O)N1CCc2c(c(-c3ccc(C(F)(F)F)cc3)nn2Cc2ccc(F)cc2F)C1 [Example 6bk, 1-[1-(2,4-Difluoro-benzyl)-3-(4-trifluoromethyl-phenyl)-1,4,6,7-tetrahydro-pyrazolo[4,3-c]pyridin-5-yl]-ethanone]",1150
3,"CS(=O)(=O)c1ccc(C(=O)N2CCc3c(c(-c4cccc(C#N)c4)nn3Cc3ccc(F)cc3F)C2)cc1 [Example 8k, 3-[1-(2,4-Difluoro-benzyl)-5-(4-methanesulfonyl-benzoyl)-4,5,6,7-tetrahydro-1H-pyrazolo[4,3-c]pyridin-3-yl]-benzonitrile]",906
4,"CC(=O)N1CCc2c(c(-c3cccc(C#N)c3)nn2C(C)c2ccc(F)cc2)C1 (stereo not drawn) [Example 6an, 3-{5-Acetyl-1-[1-(4-fluoro-phenyl)-ethyl]-4,5,6,7-tetrahydro-1H-pyrazolo[4,3-c]pyridin-3-yl}-benzonitrile]",187
5,"COc1ccc(C(=O)N2CCc3c(c(-c4ccc(F)cc4)nn3Cc3ccccc3)C2)cc1 [Example 8g, [1-Benzyl-3-(4-fluoro-phenyl)-1,4,6,7-tetrahydro-pyrazolo[4,3-c]pyridin-5-yl]-(4-methoxy-phenyl)-methanone]",3260
6,"CC(=O)N1CCc2c(c(-c3cccc(C(F)(F)F)c3)nn2Cc2cnccc2Cl)C1 [Example 6c, 1-[1-(4-Chloro-pyridin-3-ylmethyl)-3-(3-trifluoromethyl-phenyl)-1,4,6,7-tetrahydro-pyrazolo[4,3-c]pyridin-5-yl]-ethanone]",215
7,"N#Cc1cccc(-c2nn(Cc3ccc(F)cc3F)c3c2CN(C(=O)C2CCCC2)CC3)c1 [Example 8j, 3-[5-Cyclopentane-carbonyl-1-(2,4-difluoro-benzyl)-4,5,6,7-tetrahydro-1H-pyrazolo[4,3-c]pyridin-3-yl]-benzonitrile]",722
8,"N#Cc1cccc(-c2nn(Cc3ccc(F)cc3F)c3c2CN(C(=O)c2ccncc2F)CC3)c1 [Example 8u, 3-[1-(2,4-Difluoro-benzyl)-5-(3-fluoro-pyridine-4-carbonyl)-4,5,6,7-tetrahydro-1H-pyrazolo[4,3-c]pyridin-3-yl]-benzonitrile]",416
9,"O=C(c1ccccc1)N1CCc2c(c(-c3ccc(F)cc3)nn2Cc2ccccc2)C1 [Example 8h, [1-Benzyl-3-(4-fluoro-phenyl)-1,4,6,7-tetrahydro-pyrazolo[4,3-c]pyridin-5-yl]-phenyl-methanone]",2400
10,"CC(=O)N1CCc2c(c(-c3ccc(F)c(C#N)c3)nn2Cc2ccc(F)cc2F)C1 [Example 6bi, 5-[5-Acetyl-1-(2,4-difluoro-benzyl)-4,5,6,7-tetrahydro-1H-pyrazolo[4,3-c]pyridin-3-yl]-2-fluoro-benzonitrile]",1640
11,"O=C(Cc1ccccc1)N1CCc2c(c(-c3ccc(F)cc3)nn2Cc2ccccc2)C1 [Example 8r, 1-[1-Benzyl-3-(4-fluoro-phenyl)-1,4,6,7-tetrahydro-pyrazolo[4,3-c]pyridin-5-yl]-2-phenyl-ethanone]",1140
12,"N#Cc1cccc(-c2nn(Cc3ccc(F)cc3F)c3c2CN(C(=O)C2CCOC2)CC3)c1 (stereo not drawn) [Example 8m, 3-[1-(2,4-Difluoro-benzyl)-5-(tetrahydro-furan-3-carbonyl)-4,5,6,7-tetrahydro-1H-pyrazolo[4,3-c]pyridin-3-yl]-benzonitrile]",890
13,"CC(c1ccc(F)cc1)n1nc(-c2ccc(F)cc2)c2c1CCN(C(=O)N1CC[C@H](O)C1)C2 (single isomer, unassigned) [Example 12c]",734
14,"CC(C)(C)C(=O)N1CCc2c(c(-c3cccc(C#N)c3)nn2Cc2ccc(F)cc2F)C1 [Example 8o, 3-[1-(2,4-Difluoro-benzyl)-5-(2,2-dimethyl-propionyl)-4,5,6,7-tetrahydro-1H-pyrazolo[4,3-c]pyridin-3-yl]-benzonitrile]",131
15,"CC(=O)N1CCc2c(c(-c3cccc(C(F)(F)F)n3)nn2Cc2ccc(F)cc2F)C1 [Example 6i, 1-[1-(2,4-Difluoro-benzyl)-3-(6-trifluoromethyl-pyridin-2-yl)-1,4,6,7-tetrahydro-pyrazolo[4,3-c]pyridin-5-yl]-ethanone]",216
16,"CC(=O)N1CCc2c(c(-c3ccc(F)cc3)nn2Cc2ccc(C(F)(F)F)cc2)C1 [Example 6as, 1-[3-(4-Fluoro-phenyl)-1-(4-trifluoromethyl-benzyl)-1,4,6,7-tetrahydro-pyrazolo[4,3-c]pyridin-5-yl]-ethanone]",659
17,"CC(=O)N1CCc2c(c(-c3ccc(F)cc3)nn2Cc2ccc(F)cc2F)C1 [Example 6f, 1-[1-(2,4-Difluoro-benzyl)-3-(4-fluoro-phenyl)-1,4,6,7-tetrahydro-pyrazolo[4,3-c]pyridin-5-yl]-ethanone]",598
18,"CC(=O)N1CCc2c(c(-c3cccc(C(F)(F)F)c3)nn2Cc2ncccc2C)C1 [Example 6d, 1-[1-(3-Methyl-pyridin-2-ylmethyl)-3-(3-trifluoromethyl-phenyl)-1,4,6,7-tetrahydro-pyrazolo[4,3-c]pyridin-5-yl]-ethanone]",422
19,"COc1cccc(-c2nn(Cc3ccc(F)cc3F)c3c2CN(C(C)=O)CC3)c1 [Example 6at, 1-[1-(2,4-Difluoro-benzyl)-3-(3-methoxy-phenyl)-1,4,6,7-tetrahydro-pyrazolo[4,3-c]pyridin-5-yl]-ethanone]",720
20,"CC(=O)N1CCc2c(c(-c3cc(Br)ccn3)nn2Cc2ccc(F)cc2F)C1 [Example 6j, 1-[3-(4-Bromo-pyridin-2-yl)-1-(2,4-difluoro-benzyl)-1,4,6,7-tetrahydro-pyrazolo[4,3-c]pyridin-5-yl]-ethanone]",< 10000
